In one assay the target is T1, TAK1-TAB1 fusion protein (Homo sapiens, UniProt O43318).
T1 construct: purchased Carna
T1 sequence (O43318 with tags, fused parts or gaps limits assumed): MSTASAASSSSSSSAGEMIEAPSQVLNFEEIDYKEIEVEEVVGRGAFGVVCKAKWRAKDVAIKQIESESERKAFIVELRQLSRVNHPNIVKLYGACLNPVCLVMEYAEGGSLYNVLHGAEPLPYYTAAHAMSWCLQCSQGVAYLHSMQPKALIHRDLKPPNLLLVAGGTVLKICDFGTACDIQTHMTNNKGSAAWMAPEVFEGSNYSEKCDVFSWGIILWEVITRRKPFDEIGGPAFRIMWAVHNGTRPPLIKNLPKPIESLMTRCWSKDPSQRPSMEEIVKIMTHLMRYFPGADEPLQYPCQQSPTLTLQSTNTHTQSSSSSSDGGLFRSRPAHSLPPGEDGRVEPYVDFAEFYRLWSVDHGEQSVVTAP
In words: TAK1 biochemical assay (AlphaScreen, GST-MAP2K7 substrate). For orientation: Alpha assays give light when donor and acceptor beads are brought close together.

The next assay concerns pJNK in HCT-116 cells. The assay is described as follows: Phospho-JNK (Thr183/Tyr185) Meso Scale ELISA assay, TNFα-stimulated HCT-116 cells. The conditions noted are these: Homo sapiens, read-out: mean HCT-116 pJNK ELISA IC50 (Col. B). Type of assay: cell-based. The method, boiled down: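 HCT-116 cells in 1% FCS medium were pretreated with compound for 4 hrs at 37° C, then stimulated with TNFα at 10 ng/mL final for 10 minutes. Lysates were taken in ice-cold lysis buffer with phosphatase and protease inhibitors, and phospho-JNK (Thr183/Tyr185) was measured by Meso Scale ELISA.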

The next assay has as its system p-p38 in HCT-116 cells. In words: Phospho-p38 Meso Scale ELISA assay, TNFα-stimulated HCT-116 cells. Type of assay: cell-based. The conditions noted are these: Homo sapiens, read-out: mean HCT-116 p-p38 ELISA IC50 (Col. C). The method, boiled down:
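HCT-116 cells in 1% FCS medium for 2 h, then compound for 4 h at 37° C, then TNFα at 10 ng/mL final for 10 min. Lysates captured overnight at 4° C and phospho-p38 quantified by Meso Scale electrochemiluminescence ELISA.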
Background: ELISA stands for enzyme-linked immunosorbent assay.

[1] abbreviates: TAK1-TAB1 fusion protein, GST-MAP2K7 substrate, read-out: mean TAK1 IC50 (Col. A).

Data on 23 compounds can be found in patent US8378104B2 (OSI Pharmaceuticals, LLC, priority 2010, dated 2013).

Structures can show the parent of a compound that is named as a salt. Where two headings read alike, the source gives them in different places.

As usually defined, the IC50 is the concentration that inhibits the measured activity by half.

Take `CSc1cccc(-c2cc3c(-c4cnn(C5CCN(C(C)=O)CC5)c4)cnc(N)c3o2)c1` [Example 133, 1-[4-(4-{7-amino-2-[3-(methylsulfanyl)phenyl]furo[2,3-c]pyridin-4-yl}-1H-pyrazol-1-yl)piperidin-1-yl]ethanone]: the IC50 on TAK1-TAB1 fusion protein (setting [1]), in the assay with pJNK in HCT-116 cells and with p-p38 in HCT-116 cells was 1000 to 10000 nM throughout.
`CS(=O)(=O)CCN1CCC(n2cc(-c3cnc(N)c4oc(-c5cccc6cnccc56)cc34)cn2)CC1` [Example 82, 2-(isoquinolin-5-yl)-4-(1-{1-[2-(methylsulfonyl)ethyl]piperidin-4-yl}-1H-pyrazol-4-yl)furo[2,3-c]pyridin-7-amine]: the IC50 at TAK1-TAB1 fusion protein (setting [1]), in the assay with pJNK in HCT-116 cells and in the assay with p-p38 in HCT-116 cells was 100 to 1000 nM in each case.
Consider `Nc1ncc(-c2cnn(C3CCOCC3)c2)c2cc(-c3cccc4cnccc34)oc12` [Example 74, 2-(isoquinolin-5-yl)-4-[1-(tetrahydro-2H-pyran-4-yl)-1H-pyrazol-4-yl]furo[2,3-c]pyridin-7-amine], for which the IC50 fell in the range of 100 to 1000 nM at TAK1-TAB1 fusion protein (setting [1]), 100 to 1000 nM in the assay on pJNK in HCT-116 cells and 1000 to 10000 nM in the assay with p-p38 in HCT-116 cells.
Take `CC(=O)N1CCC(n2cc(-c3cnc(N)c4oc(-c5cccc(CO)c5)cc34)cn2)CC1` [Example 169, 1-[4-(4-{7-amino-2-[3-(hydroxymethyl)phenyl]furo[2,3-c]pyridin-4-yl}-1H-pyrazol-1-yl)piperidin-1-yl]ethanone]: the IC50 at TAK1-TAB1 fusion protein (setting [1]) lay in the range of 100 to 1000 nM; in the assay on pJNK in HCT-116 cells, 100 to 1000 nM; with p-p38 in HCT-116 cells, 1000 to 10000 nM.
For `Nc1ncc(-c2cnn([C@H]3CC[C@H](O)CC3)c2)c2cc(-c3csc4cnc(F)cc34)oc12` [Example 249, trans-4-{4-[7-amino-2-(5-fluorothieno[2,3-c]pyridin-3-yl)furo[2,3-c]pyridin-4-yl]-1H-pyrazol-1-yl}cyclohexanol], the IC50 at TAK1-TAB1 fusion protein (setting [1]), in the assay on pJNK in HCT-116 cells and in the assay on p-p38 in HCT-116 cells was less than 100 nM each time.
For `Nc1ncc(-c2cnn([C@H]3CC[C@H](O)CC3)c2)c2cc(-c3ccc4[nH]ncc4c3)oc12` [Example 402, trans-4-{4-[7-amino-2-(1H-indazol-5-yl)furo[2,3-c]pyridin-4-yl]-1H-pyrazol-1-yl}cyclohexanol], the IC50 on TAK1-TAB1 fusion protein (setting [1]) was 100 to 1000 nM; in the assay with pJNK in HCT-116 cells, 100 to 1000 nM; with p-p38 in HCT-116 cells, 1000 to 10000 nM.
As to `Nc1ncc(-c2cnn(C3CCNCC3)c2)c2cc(-c3ccc4[nH][nH]c(=O)c4c3)oc12` [Example 55, 5-{7-amino-4-[1-(piperidin-4-yl)-1H-pyrazol-4-yl]furo[2,3-c]pyridin-2-yl}-1,2-dihydro-3H-indazol-3-one trifluoroacetic acid salt], the IC50 on TAK1-TAB1 fusion protein (setting [1]) is less than 100 nM; in the assay with pJNK in HCT-116 cells, more than 10000 nM; in the assay with p-p38 in HCT-116 cells, more than 10000 nM.
Regarding `CCN1CCC(n2cc(-c3cnc(N)c4oc(-c5cccc6cnccc56)cc34)cn2)CC1` [Example 78, 4-[1-(1-ethylpiperidin-4-yl)-1H-pyrazol-4-yl]-2-(isoquinolin-5-yl)furo[2,3-c]pyridin-7-amine], the IC50 on TAK1-TAB1 fusion protein (setting [1]), in the assay with pJNK in HCT-116 cells and in the assay with p-p38 in HCT-116 cells was 100 to 1000 nM throughout.
Regarding `CC(=O)N1CCC(n2cc(-c3cnc(N)c4oc(-c5cccc6c5oc5ccccc56)cc34)cn2)CC1` [Example 93, 1-(4-{4-[7-amino-2-(dibenzo[b,d]furan-4-yl)furo[2,3-c]pyridin-4-yl]-1H-pyrazol-1-yl}piperidin-1-yl)ethanone], the results for the IC50 on TAK1-TAB1 fusion protein (setting [1]), in the assay with pJNK in HCT-116 cells and in the assay on p-p38 in HCT-116 cells were more than 10000 nM, 1000 to 10000 nM and 1000 to 10000 nM, respectively.
Take `CC(C)C(=O)N1CCC(n2cc(-c3cnc(N)c4oc(-c5cccc6cnccc56)cc34)cn2)CC1` [Example 51, 1-(4-{4-[7-amino-2-(isoquinolin-5-yl)furo[2,3-c]pyridin-4-yl]-1H-pyrazol-1-yl}piperidin-1-yl)-2-methylpropan-1-one]: the IC50 at TAK1-TAB1 fusion protein (setting [1]) was 100 to 1000 nM; in the assay with pJNK in HCT-116 cells, less than 100 nM; in the assay on p-p38 in HCT-116 cells it was less than 100 nM.
As to `CNc1ncc(-c2cnn(C3CCN(C(C)=O)CC3)c2)c2cc(-c3c[nH]c4cnccc34)oc12` [Example 280, 1-(4-{4-[7-(methylamino)-2-(1H-pyrrolo[2,3-c]pyridin-3-yl)furo[2,3-c]pyridin-4-yl]-1H-pyrazol-1-yl}piperidin-1-yl)ethanone trifluoroacetic acid salt], the IC50 on TAK1-TAB1 fusion protein (setting [1]) is less than 100 nM; in the assay with pJNK in HCT-116 cells, 1000 to 10000 nM; in the assay with p-p38 in HCT-116 cells it was 100 to 1000 nM.
Take `CC(=O)N1CCC(n2cc(-c3cnc(N)c4oc(-c5c(C)sc6cnccc56)cc34)cn2)CC1` [Example 253, 1-(4-{4-[7-amino-2-(2-methylthieno[2,3-c]pyridin-3-yl)furo[2,3-c]pyridin-4-yl]-1H-pyrazol-1-yl}piperidin-1-yl)ethanone trifluoroacetate]: the IC50 on TAK1-TAB1 fusion protein (setting [1]) was less than 100 nM; in the assay with pJNK in HCT-116 cells it was 100 to 1000 nM; in the assay on p-p38 in HCT-116 cells, 1000 to 10000 nM.
Consider `Nc1ncc(-c2cn[nH]c2)c2cc(-c3c[nH]c4cnccc34)oc12` [Example 87, 4-(1H-pyrazol-4-yl)-2-(1H-pyrrolo[2,3-c]pyridin-3-yl)furo[2,3-c]pyridin-7-amine trifluoroacetic acid salt], for which the IC50 on TAK1-TAB1 fusion protein (setting [1]) is less than 100 nM; in the assay on pJNK in HCT-116 cells, 100 to 1000 nM; in the assay with p-p38 in HCT-116 cells, 1000 to 10000 nM.
For `CSc1ccccc1-c1cc2c(-c3cnn(C4CCN(C(C)=O)CC4)c3)cnc(N)c2o1` [Example 216, 1-[4-(4-{7-amino-2-[2-(methylsulfanyl)phenyl]furo[2,3-c]pyridin-4-yl}-1H-pyrazol-1-yl)piperidin-1-yl]ethanone], the IC50 at TAK1-TAB1 fusion protein (setting [1]), in the assay with pJNK in HCT-116 cells and in the assay on p-p38 in HCT-116 cells was 100 to 1000 nM in each case.
As for `CC(=O)N1CCC(n2cc(-c3cnc(N)c4oc(-c5ccc(O)cc5C)cc34)cn2)CC1` [Example 135, 1-(4-{4-[7-amino-2-(4-hydroxy-2-methylphenyl)furo[2,3-c]pyridin-4-yl]-1H-pyrazol-1-yl}piperidin-1-yl)ethanone], the IC50 on TAK1-TAB1 fusion protein (setting [1]), with pJNK in HCT-116 cells and in the assay on p-p38 in HCT-116 cells was 100 to 1000 nM each time.
As for `Nc1ncc(-c2cnn(C3CCNCC3)c2)c2cc(-c3csc4cnccc34)oc12` [Example 322, 4-(1-piperidin-4-yl-1H-pyrazol-4-yl)-2-thieno[2,3-c]pyridin-3-yl-furo[2,3-c]pyridin-7-ylamine], the IC50 at TAK1-TAB1 fusion protein (setting [1]) is less than 100 nM; with pJNK in HCT-116 cells, 100 to 1000 nM; with p-p38 in HCT-116 cells, 100 to 1000 nM.
On to `CC(=O)N1CCC(n2cc(-c3cnc(N)c4oc(-c5ccc6scnc6c5)cc34)cn2)CC1` [Example 107, 1-(4-{4-[7-amino-2-(1,3-benzothiazol-5-yl)furo[2,3-c]pyridin-4-yl]-1H-pyrazol-1-yl}piperidin-1-yl)ethanone], for which the IC50 at TAK1-TAB1 fusion protein (setting [1]), in the assay with pJNK in HCT-116 cells and in the assay on p-p38 in HCT-116 cells was 100 to 1000 nM in each case.
Regarding `CC(=O)N1CCC(n2cc(-c3cnc(N)c4oc(-c5cccc6ccccc56)cc34)cn2)CC1` [Example 105, 1-(4-{4-[7-amino-2-(naphthalen-1-yl)furo[2,3-c]pyridin-4-yl]-1H-pyrazol-1-yl}piperidin-1-yl)ethanone], the IC50 was in the range of 100 to 1000 nM at TAK1-TAB1 fusion protein (setting [1]), 1000 to 10000 nM in the assay with pJNK in HCT-116 cells and 1000 to 10000 nM with p-p38 in HCT-116 cells.
Regarding `CC(=O)N1CCC(n2cc(-c3cnc(N)c4oc(-c5ccc6sccc6c5)cc34)cn2)CC1` [Example 106, 1-(4-{4-[7-amino-2-(1-benzothiophen-5-yl)furo[2,3-c]pyridin-4-yl]-1H-pyrazol-1-yl}piperidin-1-yl)ethanone], the IC50 at TAK1-TAB1 fusion protein (setting [1]), in the assay with pJNK in HCT-116 cells and in the assay with p-p38 in HCT-116 cells was 100 to 1000 nM each time.
With `Nc1ncc(-c2cnn([C@H]3CC[C@H](O)CC3)c2)c2cc(-c3cccc4nnsc34)oc12` [Example 229, trans-4-{4-[7-amino-2-(1,2,3-benzothiadiazol-7-yl)furo[2,3-c]pyridin-4-yl]-1H-pyrazol-1-yl}cyclohexanol], the IC50 on TAK1-TAB1 fusion protein, in the assay with pJNK in HCT-116 cells and in the assay on p-p38 in HCT-116 cells was less than 100 nM in each case.
For `Cn1cc(-c2cnc(N)c3oc(-c4cccc5cnccc45)cc23)cn1` [Example 70, 2-(isoquinolin-5-yl)-4-(1-methyl-1H-pyrazol-4-yl)furo[2,3-c]pyridin-7-amine], the values for the IC50 on TAK1-TAB1 fusion protein (setting [1]), in the assay with pJNK in HCT-116 cells and with p-p38 in HCT-116 cells were 1000 to 10000 nM, 100 to 1000 nM and 100 to 1000 nM, respectively.
Consider `CC(=O)N1CCC(n2cc(-c3cnc(N)c4oc(-c5c(C)n[nH]c5C)cc34)cn2)CC1` [Example 180, 1-(4-{4-[7-amino-2-(3,5-dimethyl-1H-pyrazol-4-yl)furo[2,3-c]pyridin-4-yl]-1H-pyrazol-1-yl}piperidin-1-yl)ethanone], for which the IC50 on TAK1-TAB1 fusion protein (setting [1]) is 100 to 1000 nM; in the assay with pJNK in HCT-116 cells, 1000 to 10000 nM; with p-p38 in HCT-116 cells it was 1000 to 10000 nM.
As to `CC(=O)N1CCC(n2cc(-c3cnc(N)c4oc(-c5ccc6[nH]nc(C#N)c6c5)cc34)cn2)CC1` [Example 236, 5-{4-[1-(1-acetylpiperidin-4-yl)-1H-pyrazol-4-yl]-7-aminofuro[2,3-c]pyridin-2-yl}-1H-indazole-3-carbonitrile], the IC50 on TAK1-TAB1 fusion protein (setting [1]) was 100 to 1000 nM; with pJNK in HCT-116 cells, 1000 to 10000 nM; in the assay on p-p38 in HCT-116 cells, more than 10000 nM.
